# Measurements from patent publication US10888544B2, “Methods for treating Gaucher disease” (Genzyme Corporation, priority 2017, dated 2021).
# Where “and” joins values, the source holds several entries; their conditions need not be identical. Equal values may be shown once. Read-outs that look alike come from different tables or passages of the source.
# Experiment: Single oral dose pharmacokinetic study of eliglustat tartrate in mild or moderate hepatic impairment and matched healthy subjects (Example 1)
# Format: in vivo, human
# Conditions: for AUC(0-inf) / AUC(0-t) / Cmax / Vd/F / Tmax: human, 100 mg
# Experimental: A multi-center, open-label, single oral dose study of eliglustat tartrate administered to mild or moderate HI and normal hepatic function (healthy) matched (by body weight and cytochrome P450 [CYP] 2D6 phenotype) subjects was carried out to study the effect of mild and moderate hepatic impairment (HI) on the pharmacokinetics (PK) of eliglustat.
# Approximately 8 subjects were planned to be enrolled into each HI group (mild or moderate HI) and 8 subjects with normal hepatic function matched to impaired subjects by weight and CYP2D6 phenotype. At least 6 CYP2D6 extensive metabolizers (EMs) were to be enrolled into each impairment group, with the remaining 2 subjects enrolled according to the following preference: at least 20 subjects were to be screened for each impairment group and if identified, up to 2 CYP2D6 poor metabolizers (PMs) were enrolled. If less than 2 PMs were identified, up to 2 CYP2D6 intermediate metabolizers (IMs) were to be enrolled for a total of 8 subjects per group. If less than 2 PMs or IMs were identified, up to 2 additional EMs were to be enrolled for a total of 8 subjects per group. If 2 PMs were identified prior to screening 20 subjects, screening may have been discontinued. If an eligible PM subject was identified after satisfying the above requirements and enrolling 8 subjects for an impairment group, this subject may still have been enrolled for that impairment group.
# CYP2D6 EMs and IMs were to receive a single 100-mg dose of eliglustat tartrate, while CYP2D6 PMs were to receive a single 50-mg dose of eliglustat tartrate.
# For HI subjects: Male (body weight between 50.0 and 125.0 kg, inclusive) or female subjects (body weight between 40.0 and 110.0 kg, inclusive) between 18 and 79 years, inclusive, with a body mass index between 18.0 and 37 kg/m^2, inclusive; having stable chronic liver disease assessed by medical history, physical examination, and laboratory values; with moderate HI (defined as Child-Pugh score of 7 to 9, inclusive) or mild HI (defined as Child-Pugh score of 5 to 6, inclusive). For healthy subjects: Male or female subjects, between 18 and 79 years, inclusive; body weight within 15% of the body weight of matched subjects with HI, and body mass index between 18.0 and 37 kg/m^2, inclusive; healthy subjects were also matched to HI groups by CYP2D6 phenotype predicted from genotype.
# A single 100-mg capsule of eliglustat tartrate (equivalent to 84 mg of eliglustat) was administered to CYP2D6 EM or IM subjects with mild or moderate HI and matching healthy subjects.
# Pharmacokinetics: The following PK parameters were calculated for eliglustat plasma concentrations using noncompartmental methods: Maximum plasma concentration observed (Cmax), area under the plasma concentration versus time curve calculated using the trapezoidal method from time zero to the time corresponding to the last quantifiable concentration tlast (AUClast), time to reach Cmax(tmax), area under the plasma concentration versus time curve extrapolated to infinity (AUC), terminal half-life associated with the terminal slope λz (t1/2z), time corresponding to the last concentration above the limit of quantification (tlast), apparent total body clearance of a drug from the plasma (CL/F), and apparent volume of distribution during the terminal (λz) phase (Vz/F).
# Blood samples were collected at the following timepoints to assess plasma concentrations of eliglustat: predose and 0.5, 1, 1.5, 2, 2.5, 3, 4, 6, 8, 10, 12, 24, 36, and 48 hours postdose.
# Eliglustat concentrations in plasma were determined using a validated liquid chromatography-tandem mass spectrometry method with a lower limit of quantification of 0.2 ng/mL.
# Eliglustat PK parameters were summarized using descriptive statistics for each population group and for each CYP2D6 phenotype. […]
# [1] = CYP2D6 EM, healthy, N=7, single 100 mg eliglustat tartrate oral, plasma
# [2] = CYP2D6 EM, mild HI, N=6, single 100 mg eliglustat tartrate oral, plasma
# [3] = CYP2D6 EM, moderate HI, N=7, single 100 mg eliglustat tartrate oral, plasma
# [4] = CYP2D6 IM, healthy, N=1, single 100 mg eliglustat tartrate oral, plasma
# [5] = CYP2D6 IM, mild HI, N=2, single 100 mg eliglustat tartrate oral, plasma
# [6] = CYP2D6 IM, moderate HI, N=1, single 100 mg eliglustat tartrate oral, plasma
# [7] = Mild HI vs Healthy, CYP2D6 EM subjects, single 100 mg eliglustat tartrate
# [8] = Moderate HI vs Healthy, CYP2D6 EM subjects, single 100 mg eliglustat tartrate
compound,measurement,setting,value
"CCCCCCCC(=O)N[C@H](CN1CCCC1)[C@H](O)c1ccc2c(c1)OCCO2 [eliglustat, N-((1R,2R)-1-(2,3-dihydrobenzo[b][1,4]dioxin-6-yl)-1-hydroxy-3-(pyrrolidin-1-yl)propan-2-yl)octanamide]","CL/F, geometric mean",[1],(1420) [40.1] L/h
same,"CL/F, mean ± SD",[1],1570 ± 628 L/h
same,"t1/2z, geometric mean",[1],(7.03) [12.5] h
same,"t1/2z, mean ± SD",[1],7.08 h and 7.08 ± 0.881 h
same,"tlast, median",[1],24.00 h
same,"CL/F, geometric mean",[2],(1230) [72.8]^ L/h
same,"CL/F, mean ± SD",[2],1980 ± 1440 L/h
same,"t1/2z, geometric mean",[2],(7.13) [20.1] h
same,"t1/2z, mean ± SD",[2],7.25 ± 1.46 h
same,"tlast, median",[2],30.00 h
same,"CL/F, geometric mean",[3],(275) [70.9] L/h
same,"CL/F, mean ± SD",[3],416 ± 295 L/h
same,"t1/2z, geometric mean",[3],(10.3) [21.4]^ h
same,"t1/2z, mean ± SD",[3],10.5 h and 10.5 ± 2.25 h
same,"tlast, median",[3],48.00 h
same,CL/F,[4],146 L/h
same,t1/2z,[4],8.48 h
same,tlast,[4],48.00 h
same,"CL/F, mean",[5],306 L/h
same,"t1/2z, mean",[5],9.34 h
same,tlast,[5],48.00 h
same,CL/F,[6],406 L/h
same,t1/2z,[6],5.87 h
same,tlast,[6],24.00 h
same,"AUC geometric mean ratio, point estimate",[7],1.15
same,"AUClast geometric mean ratio, point estimate",[7],1.18
same,"CL/F geometric mean ratio, point estimate",[7],0.87
same,"Cmax geometric mean ratio, point estimate",[7],1.22
same,"Vz/F geometric mean ratio, point estimate",[7],0.88
same,"AUC geometric mean ratio, point estimate",[8],5.16
same,"AUClast geometric mean ratio, point estimate",[8],5.35
same,"CL/F geometric mean ratio, point estimate",[8],0.19
same,"Cmax geometric mean ratio, point estimate",[8],2.81
same,"Vz/F geometric mean ratio, point estimate",[8],0.28
same,"t1/2z geometric mean ratio, point estimate",[8],1.47
same,AUC(0-inf),"both sexes, plasma, oral, CYP2D6 IM, healthy, N=1, single 100 mg eliglustat tartrate oral, plasma, read-out: AUC (extrapolated to infinity)",578 ng·h/mL
same,AUC(0-inf),"both sexes, plasma, oral, CYP2D6 IM, mild HI, N=2, single 100 mg eliglustat tartrate oral, plasma, read-out: AUC (extrapolated to infinity), mean",346 ng·h/mL
same,AUC(0-t),"both sexes, plasma, oral, CYP2D6 IM, mild HI, N=2, single 100 mg eliglustat tartrate oral, plasma, read-out: AUClast, mean",334 ng·h/mL
same,Cmax,"both sexes, plasma, oral, CYP2D6 IM, mild HI, N=2, single 100 mg eliglustat tartrate oral, plasma, read-out: Cmax, mean",35.9 ng/mL
same,Vd/F,"both sexes, plasma, oral, CYP2D6 IM, mild HI, N=2, single 100 mg eliglustat tartrate oral, plasma, read-out: Vz/F, mean",3910 L
same,Tmax,"both sexes, plasma, oral, CYP2D6 IM, mild HI, N=2, single 100 mg eliglustat tartrate oral, plasma, read-out: tmax",2 h
same,AUC(0-inf),"both sexes, plasma, oral, CYP2D6 IM, moderate HI, N=1, single 100 mg eliglustat tartrate oral, plasma, read-out: AUC (extrapolated to infinity)",208 ng·h/mL
same,AUC(0-inf),"both sexes, plasma, po, CYP2D6 EM, healthy, N=7, single 100 mg eliglustat tartrate oral, plasma, read-out: AUC (extrapolated to infinity), geometric mean",59.5 ng·h/mL
same,AUC(0-inf),"both sexes, plasma, po, CYP2D6 EM, healthy, N=7, single 100 mg eliglustat tartrate oral, plasma, read-out: AUC (extrapolated to infinity), mean ± SD",69 ± 49.1 ng·h/mL
same,AUC(0-t),"both sexes, plasma, po, CYP2D6 EM, healthy, N=7, single 100 mg eliglustat tartrate oral, plasma, read-out: AUClast, geometric mean",54.7 ng·h/mL
same,AUC(0-t),"both sexes, plasma, po, CYP2D6 EM, healthy, N=7, single 100 mg eliglustat tartrate oral, plasma, read-out: AUClast, mean ± SD",63.9 ± 47.1 ng·h/mL
same,Cmax,"both sexes, plasma, po, CYP2D6 EM, healthy, N=7, single 100 mg eliglustat tartrate oral, plasma, read-out: Cmax, geometric mean",8.81 ng/mL
same,Cmax,"both sexes, plasma, po, CYP2D6 EM, healthy, N=7, single 100 mg eliglustat tartrate oral, plasma, read-out: Cmax, mean ± SD",10.4 ± 7.4 ng/mL
same,Vd/F,"both sexes, plasma, po, CYP2D6 EM, healthy, N=7, single 100 mg eliglustat tartrate oral, plasma, read-out: Vz/F, geometric mean",14400 L
same,Vd/F,"both sexes, plasma, po, CYP2D6 EM, healthy, N=7, single 100 mg eliglustat tartrate oral, plasma, read-out: Vz/F, mean ± SD",16000 ± 6020 L
same,Tmax,"both sexes, plasma, po, CYP2D6 EM, healthy, N=7, single 100 mg eliglustat tartrate oral, plasma, read-out: tmax, median",2.5 h
same,AUC(0-inf),"both sexes, plasma, po, CYP2D6 EM, mild HI, N=6, single 100 mg eliglustat tartrate oral, plasma, read-out: AUC (extrapolated to infinity), geometric mean",68.5 ng·h/mL
same,AUC(0-inf),"both sexes, plasma, po, CYP2D6 EM, mild HI, N=6, single 100 mg eliglustat tartrate oral, plasma, read-out: AUC (extrapolated to infinity), mean ± SD",172 ± 293 ng·h/mL
same,AUC(0-t),"both sexes, plasma, po, CYP2D6 EM, mild HI, N=6, single 100 mg eliglustat tartrate oral, plasma, read-out: AUClast, geometric mean",64.3 ng·h/mL
same,AUC(0-t),"both sexes, plasma, po, CYP2D6 EM, mild HI, N=6, single 100 mg eliglustat tartrate oral, plasma, read-out: AUClast, mean ± SD",166 ± 285 ng·h/mL
same,Cmax,"both sexes, plasma, po, CYP2D6 EM, mild HI, N=6, single 100 mg eliglustat tartrate oral, plasma, read-out: Cmax, geometric mean",10.7 ng/mL
same,Cmax,"both sexes, plasma, po, CYP2D6 EM, mild HI, N=6, single 100 mg eliglustat tartrate oral, plasma, read-out: Cmax, mean ± SD",22.4 ± 30.2 ng/mL
same,Vd/F,"both sexes, plasma, po, CYP2D6 EM, mild HI, N=6, single 100 mg eliglustat tartrate oral, plasma, read-out: Vz/F, geometric mean",12700 L
same,Vd/F,"both sexes, plasma, po, CYP2D6 EM, mild HI, N=6, single 100 mg eliglustat tartrate oral, plasma, read-out: Vz/F, mean ± SD",20000 ± 15600 L
same,Tmax,"both sexes, plasma, po, CYP2D6 EM, mild HI, N=6, single 100 mg eliglustat tartrate oral, plasma, read-out: tmax, median",1.75 h
same,AUC(0-inf),"both sexes, plasma, po, CYP2D6 EM, moderate HI, N=7, single 100 mg eliglustat tartrate oral, plasma, read-out: AUC (extrapolated to infinity), geometric mean",307 ng·h/mL
same,AUC(0-inf),"both sexes, plasma, po, CYP2D6 EM, moderate HI, N=7, single 100 mg eliglustat tartrate oral, plasma, read-out: AUC (extrapolated to infinity), mean ± SD",575 ± 696 ng·h/mL
same,AUC(0-t),"both sexes, plasma, po, CYP2D6 EM, moderate HI, N=7, single 100 mg eliglustat tartrate oral, plasma, read-out: AUClast, geometric mean",293 ng·h/mL
same,AUC(0-t),"both sexes, plasma, po, CYP2D6 EM, moderate HI, N=7, single 100 mg eliglustat tartrate oral, plasma, read-out: AUClast, mean ± SD",536 ± 642 ng·h/mL
same,Cmax,"both sexes, plasma, po, CYP2D6 EM, moderate HI, N=7, single 100 mg eliglustat tartrate oral, plasma, read-out: Cmax, geometric mean",24.8 ng/mL
same,Cmax,"both sexes, plasma, po, CYP2D6 EM, moderate HI, N=7, single 100 mg eliglustat tartrate oral, plasma, read-out: Cmax, mean ± SD",39.5 ± 43.4 ng/mL
same,Vd/F,"both sexes, plasma, po, CYP2D6 EM, moderate HI, N=7, single 100 mg eliglustat tartrate oral, plasma, read-out: Vz/F, geometric mean",4090 L
same,Vd/F,"both sexes, plasma, po, CYP2D6 EM, moderate HI, N=7, single 100 mg eliglustat tartrate oral, plasma, read-out: Vz/F, mean ± SD",5840 ± 4130 L
same,Tmax,"both sexes, plasma, po, CYP2D6 EM, moderate HI, N=7, single 100 mg eliglustat tartrate oral, plasma, read-out: tmax, median",4 h
same,AUC(0-t),"plasma, oral, CYP2D6 IM, healthy, N=1, single 100 mg eliglustat tartrate oral, plasma, read-out: AUClast",568 ng·h/mL
same,Cmax,"plasma, oral, CYP2D6 IM, healthy, N=1, single 100 mg eliglustat tartrate oral, plasma, read-out: Cmax",75.9 ng/mL
same,Vd/F,"plasma, oral, CYP2D6 IM, healthy, N=1, single 100 mg eliglustat tartrate oral, plasma, read-out: Vz/F",1790 L
same,Tmax,"plasma, oral, CYP2D6 IM, healthy, N=1, single 100 mg eliglustat tartrate oral, plasma, read-out: tmax",2.5 h
same,AUC(0-t),"plasma, oral, CYP2D6 IM, moderate HI, N=1, single 100 mg eliglustat tartrate oral, plasma, read-out: AUClast",197 ng·h/mL
same,Cmax,"plasma, oral, CYP2D6 IM, moderate HI, N=1, single 100 mg eliglustat tartrate oral, plasma, read-out: Cmax",35.6 ng/mL
same,Vd/F,"plasma, oral, CYP2D6 IM, moderate HI, N=1, single 100 mg eliglustat tartrate oral, plasma, read-out: Vz/F",3430 L
same,Tmax,"plasma, oral, CYP2D6 IM, moderate HI, N=1, single 100 mg eliglustat tartrate oral, plasma, read-out: tmax",1.52 h
